Tested on: 817829-284-R-J1-PDC complex spheroids, viability
Test: Anticancer human tumor 817829-284-R-J1-PDC patient-derived colon adenocarcinoma cell line growth inhibition [GQUAD]
Settings: for IC50: curve of first compound; for viability, T/C: stronger effect = lower value
In short: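 Multi-cell-type spheroids of tumor cells with HUVEC and mesenchymal stem cells, treated with drug combinations. Concentrations descend in half-log steps from near clinical Cmax, or from 10 microM where Cmax is unknown; viability read-out.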

[1] = second compound 0.0316 µM, first compound 0.0316 µM
[2] = second compound 0.0316 µM, first compound 0.316 µM
[3] = second compound 0.1 µM, first compound 0.0316 µM
[4] = second compound 0.1 µM, first compound 0.316 µM
[5] = second compound 0.316 µM, first compound 0.0316 µM
[6] = second compound 0.316 µM, first compound 0.316 µM
[7] = second compound 1 µM, first compound 0.0316 µM
[8] = second compound 1 µM, first compound 0.316 µM
[9] = second compound 3.16 µM, first compound 0.0316 µM
[10] = second compound 3.16 µM, first compound 0.316 µM
[11] = second compound 10 µM, first compound 0.0316 µM
[12] = second compound 10 µM, first compound 0.316 µM
[13] = second compound 0.0316 µM, first compound 0.1 µM
[14] = second compound 0.0316 µM, first compound 1 µM
[15] = second compound 0.0316 µM, first compound 3.16 µM
[16] = second compound 0.0316 µM, first compound 10 µM
[17] = second compound 0.1 µM, first compound 0.1 µM
[18] = second compound 0.1 µM, first compound 1 µM
[19] = second compound 0.1 µM, first compound 3.16 µM
[20] = second compound 0.1 µM, first compound 10 µM
[21] = second compound 0.316 µM, first compound 0.1 µM
[22] = second compound 0.316 µM, first compound 1 µM
[23] = second compound 0.316 µM, first compound 3.16 µM
[24] = second compound 0.316 µM, first compound 10 µM
[25] = second compound 1 µM, first compound 0.1 µM
[26] = second compound 1 µM, first compound 1 µM
[27] = second compound 1 µM, first compound 3.16 µM
[28] = second compound 1 µM, first compound 10 µM
[29] = second compound 3.16 µM, first compound 0.1 µM
[30] = second compound 3.16 µM, first compound 1 µM
[31] = second compound 3.16 µM, first compound 3.16 µM
[32] = second compound 3.16 µM, first compound 10 µM
[33] = second compound 10 µM, first compound 0.1 µM
[34] = second compound 10 µM, first compound 1 µM
[35] = second compound 10 µM, first compound 3.16 µM
[36] = second compound 10 µM, first compound 10 µM
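Note: spheroids exposed to agents for 7 days before readout.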
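Throughout, for viability, T/C: percent viability relative to DMSO vehicle control taken as 100%.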

For `Cc1[nH]c2ccccc2c1CCNCc1ccc(/C=C/C(=O)NO)cc1` + CN(C)c1ccc(Nc2c3ccc(NC(=O)CCN4CCCC4)cc3nc3cc(NC(=O)CCN4CCCC4)ccc23)cc1, the IC50 (second compound 0.0316 µM) was 52.1 nM, the IC50 (second compound 0.1 µM) was 45.7 nM and the IC50 (second compound 0.316 µM) was 47.1 nM. It also gave an IC50 (second compound 1 µM) of 53.3 nM, an IC50 (second compound 3.16 µM) of 47.7 nM and an IC50 (second compound 10 µM) of 19.1 nM. For the same compound, the viability, T/C (second compound 0.0316 µM, first compound 0.000999 µM) was 108%, the viability, T/C (second compound 0.0316 µM, first compound 0.00316 µM) was 99.3% and the viability, T/C (second compound 0.0316 µM, first compound 0.00999 µM) was 126%. For the same compound, the viability, T/C [1] was 86.1%, the viability, T/C (second compound 0.0316 µM, first compound 0.0999 µM) was 3.89% and the viability, T/C [2] was 0.19%. For the same compound, the viability, T/C (second compound 0.1 µM, first compound 0.000999 µM) was 89.8%, the viability, T/C (second compound 0.1 µM, first compound 0.00316 µM) was 110% and the viability, T/C (second compound 0.1 µM, first compound 0.00999 µM) was 109%. For the same compound, the viability, T/C [3] was 72.3%, the viability, T/C (second compound 0.1 µM, first compound 0.0999 µM) was 3.79% and the viability, T/C [4] was 0.12%. For the same compound, the viability, T/C (second compound 0.316 µM, first compound 0.000999 µM) was 94.1%, the viability, T/C (second compound 0.316 µM, first compound 0.00316 µM) was 115% and the viability, T/C (second compound 0.316 µM, first compound 0.00999 µM) was 117%. For the same compound, the viability, T/C [5] was 75.3%, the viability, T/C (second compound 0.316 µM, first compound 0.0999 µM) was 3.89% and the viability, T/C [6] was 0.11%. The viability, T/C (second compound 1 µM, first compound 0.000999 µM) was 104%, the viability, T/C (second compound 1 µM, first compound 0.00316 µM) was 100% and the viability, T/C (second compound 1 µM, first compound 0.00999 µM) was 126%. It also gave a viability, T/C [7] of 88.4%, a viability, T/C (second compound 1 µM, first compound 0.0999 µM) of 4.37% and a viability, T/C [8] of 0.14%. It also gave a viability, T/C (second compound 3.16 µM, first compound 0.000999 µM) of 96.1%, a viability, T/C (second compound 3.16 µM, first compound 0.00316 µM) of 99.2% and a viability, T/C (second compound 3.16 µM, first compound 0.00999 µM) of 119%. For the same compound, the viability, T/C [9] was 76.1%, the viability, T/C (second compound 3.16 µM, first compound 0.0999 µM) was 5.12% and the viability, T/C [10] was 0.15%. For the same compound, the viability, T/C (second compound 10 µM, first compound 0.000999 µM) was 99.2%, the viability, T/C (second compound 10 µM, first compound 0.00316 µM) was 113% and the viability, T/C (second compound 10 µM, first compound 0.00999 µM) was 78.6%. For the same compound, the viability, T/C [11] was 27.2%, the viability, T/C (second compound 10 µM, first compound 0.0999 µM) was 1.95% and the viability, T/C [12] was 0.22%.

`COc1cc(C2c3cc4c(cc3C(OC3OC5COC(C)OC5C(O)C3O)C3COC(=O)C23)OCO4)cc(OC)c1O` (stereo unspecified) + CN(C)c1ccc(Nc2c3ccc(NC(=O)CCN4CCCC4)cc3nc3cc(NC(=O)CCN4CCCC4)ccc23)cc1 gave an IC50 (second compound 0.0316 µM) of 378 nM, an IC50 (second compound 0.1 µM) of 434 nM and an IC50 (second compound 0.316 µM) of 375 nM. For the same compound, the IC50 (second compound 1 µM) was 229 nM, the IC50 (second compound 3.16 µM) was 227 nM and the IC50 (second compound 10 µM) was 295 nM. For the same compound, the viability, T/C [1] was 103%, the viability, T/C [13] was 85.7% and the viability, T/C [2] was 35%. It also gave a viability, T/C [14] of 42.8%, a viability, T/C [15] of 32.1% and a viability, T/C [16] of 10.2%. It also gave a viability, T/C [3] of 97.5%, a viability, T/C [17] of 88.6% and a viability, T/C [4] of 34.5%. The viability, T/C [18] was 44.9%, the viability, T/C [19] was 33.9% and the viability, T/C [20] was 11%. It also gave a viability, T/C [5] of 92.7%, a viability, T/C [21] of 81.6% and a viability, T/C [6] of 37.7%. It also gave a viability, T/C [22] of 40.4%, a viability, T/C [23] of 33.3% and a viability, T/C [24] of 11.8%. For the same compound, the viability, T/C [7] was 101%, the viability, T/C [25] was 92.1% and the viability, T/C [8] was 33.1%. The viability, T/C [26] was 40.7%, the viability, T/C [27] was 32% and the viability, T/C [28] was 9.94%. For the same compound, the viability, T/C [9] was 95.4%, the viability, T/C [29] was 87.9% and the viability, T/C [10] was 34.3%. For the same compound, the viability, T/C [30] was 37%, the viability, T/C [31] was 30.7% and the viability, T/C [32] was 10.4%. For the same compound, the viability, T/C [11] was 86.9%, the viability, T/C [33] was 68.2% and the viability, T/C [12] was 37.1%. It also gave a viability, T/C [34] of 41.5%, a viability, T/C [35] of 27.3% and a viability, T/C [36] of 10%.

For `COc1ccc([C@@H](O)c2cc(-c3ncnc4cc(N5CCOCC5)ccc34)c(F)cc2Cl)nn1` + Cc1[nH]c2ccc(F)cc2c1-c1nc2c3cccnc3c3ncccc3c2[nH]1, the IC50 (second compound 0.0316 µM) was over 10000 nM, the IC50 (second compound 0.1 µM) was over 10000 nM and the IC50 (second compound 0.316 µM) was over 10000 nM. The IC50 (second compound 1 µM) was 9780 nM, the IC50 (second compound 3.16 µM) was 2260 nM and the IC50 (second compound 10 µM) was 337 nM. It also gave a viability, T/C [1] of 110%, a viability, T/C [13] of 81.3% and a viability, T/C [2] of 103%. For the same compound, the viability, T/C [14] was 79.8%, the viability, T/C [15] was 87.4% and the viability, T/C [16] was 53.6%. For the same compound, the viability, T/C [3] was 92.1%, the viability, T/C [17] was 111% and the viability, T/C [4] was 93.4%. For the same compound, the viability, T/C [18] was 99.7%, the viability, T/C [19] was 84.1% and the viability, T/C [20] was 51.4%. It also gave a viability, T/C [5] of 82.2%, a viability, T/C [21] of 111% and a viability, T/C [6] of 115%. The viability, T/C [22] was 97.8%, the viability, T/C [23] was 81.5% and the viability, T/C [24] was 51.6%. For the same compound, the viability, T/C [7] was 96.5%, the viability, T/C [25] was 111% and the viability, T/C [8] was 132%. For the same compound, the viability, T/C [26] was 90%, the viability, T/C [27] was 72.6% and the viability, T/C [28] was 48.3%. The viability, T/C [9] was 102%, the viability, T/C [29] was 79% and the viability, T/C [10] was 103%. For the same compound, the viability, T/C [30] was 65.5%, the viability, T/C [31] was 45.1% and the viability, T/C [32] was 26%. The viability, T/C [11] was 41.2%, the viability, T/C [33] was 82.5% and the viability, T/C [12] was 45.6%. For the same compound, the viability, T/C [34] was 29.6%, the viability, T/C [35] was 33% and the viability, T/C [36] was 7.18%.

Reference: PubChem BioAssay AID2060503 (Molecular Pharmacology Branch, DTP, NCI, 2025)
